These results are taken from patent US20230145835A1, “Modulators of Alpha-4-beta-7 Integrin and MAdCAM” (48HD Biopharma Inc., priority 2021, published 2023).

The structures appear in SMILES notation. Numbered stars: 1 amine (or outer) side, 2 acyl side, 3 side chain; on linkers, the order of the positions; unused ones are H or OH. Bridge positions count the residues as written; N and C are the ends. Peptide text beside a SMILES is read from it. X3 = O=C(/C=N/OCCCCCCOc1cc(C[*:2])cc(C[*:3])c1)[*:1]; X1 = O=C(C=NOCCCCCCOc1cc(C[*:2])cc(C[*:3])c1)[*:1]; X2 = O=C(C=NOCc1cc(C[*:2])cc(C[*:3])c1)[*:1]

One data set in a line: in vitro. To be noted: simulated gi fluid. As to the method: Studies were carried out in simulated intestinal fluid (SIF) to evaluate the intestinal stability of the peptide molecules of the peptides of the instant disclosure. A Fasted State Simulated Intestinal Fluid (FaSSIF) reagent was prepared according to methods known in the art (including addition of the enzyme pancreatin), to which stock peptide solutions were added, incubated, quenched, and analyzed using LCMS/MS.
Percent remaining at each time point was calculated based on the peak area response ratio of test to compound to internal standard. Half-lives were calculated by fitting to a first-order exponential decay equation using GraphPad.

Data set [1] has as its target T1, rh-integrin α4β7/LPAM-1 (Homo sapiens, UniProt P13612+P26010).
T1 sequence (P13612 34-977 limits assumed): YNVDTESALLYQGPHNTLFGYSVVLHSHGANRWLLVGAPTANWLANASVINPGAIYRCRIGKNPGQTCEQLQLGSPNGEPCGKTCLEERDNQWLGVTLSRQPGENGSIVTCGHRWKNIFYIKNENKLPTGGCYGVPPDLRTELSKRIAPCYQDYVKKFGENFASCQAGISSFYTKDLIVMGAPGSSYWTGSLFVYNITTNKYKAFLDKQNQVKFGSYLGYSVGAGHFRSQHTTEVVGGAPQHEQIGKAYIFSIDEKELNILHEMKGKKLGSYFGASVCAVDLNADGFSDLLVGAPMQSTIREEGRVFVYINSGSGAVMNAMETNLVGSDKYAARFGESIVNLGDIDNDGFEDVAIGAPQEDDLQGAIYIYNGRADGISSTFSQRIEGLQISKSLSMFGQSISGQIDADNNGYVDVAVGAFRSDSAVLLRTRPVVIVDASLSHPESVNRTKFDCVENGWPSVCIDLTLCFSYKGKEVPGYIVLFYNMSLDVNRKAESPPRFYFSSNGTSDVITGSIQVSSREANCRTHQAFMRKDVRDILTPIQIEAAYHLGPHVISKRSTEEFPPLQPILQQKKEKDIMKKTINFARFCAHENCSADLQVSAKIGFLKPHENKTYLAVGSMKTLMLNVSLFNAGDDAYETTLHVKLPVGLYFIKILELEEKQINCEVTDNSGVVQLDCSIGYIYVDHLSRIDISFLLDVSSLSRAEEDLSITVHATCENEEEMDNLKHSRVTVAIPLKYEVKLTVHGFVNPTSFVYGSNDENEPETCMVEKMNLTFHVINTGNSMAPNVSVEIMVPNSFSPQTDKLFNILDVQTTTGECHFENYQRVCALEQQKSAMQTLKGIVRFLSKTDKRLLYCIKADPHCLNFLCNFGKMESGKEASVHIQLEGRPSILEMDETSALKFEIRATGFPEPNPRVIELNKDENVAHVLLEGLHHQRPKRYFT
T1 sequence (P26010 20-723 limits assumed): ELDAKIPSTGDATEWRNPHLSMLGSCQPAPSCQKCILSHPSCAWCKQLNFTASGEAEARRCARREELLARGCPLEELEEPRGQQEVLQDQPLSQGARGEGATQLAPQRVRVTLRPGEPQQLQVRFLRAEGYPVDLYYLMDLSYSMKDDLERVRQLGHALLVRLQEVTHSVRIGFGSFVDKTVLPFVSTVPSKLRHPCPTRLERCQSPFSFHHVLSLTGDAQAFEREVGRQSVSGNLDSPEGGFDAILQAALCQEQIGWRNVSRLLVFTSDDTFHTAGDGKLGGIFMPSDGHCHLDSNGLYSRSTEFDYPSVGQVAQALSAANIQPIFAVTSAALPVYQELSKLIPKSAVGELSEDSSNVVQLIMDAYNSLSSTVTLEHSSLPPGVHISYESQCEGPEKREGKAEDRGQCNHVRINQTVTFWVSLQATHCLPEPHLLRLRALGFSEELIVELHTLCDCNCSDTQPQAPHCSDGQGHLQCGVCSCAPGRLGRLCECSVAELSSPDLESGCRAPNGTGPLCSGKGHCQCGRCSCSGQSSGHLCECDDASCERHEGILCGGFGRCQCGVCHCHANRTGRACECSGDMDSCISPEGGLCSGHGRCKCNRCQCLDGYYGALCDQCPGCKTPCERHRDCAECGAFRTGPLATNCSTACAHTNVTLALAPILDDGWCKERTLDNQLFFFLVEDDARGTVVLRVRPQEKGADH
Nature of the data set: Competition Binding Assay (competition ELISA, Example 1).

Data set [2] has as its target T1, rh-integrin α4β7/LPAM-1. Nature of the data set: α4β7-MadCAM Competition ELISA (Example 4). Format: binding. As to conditions: IC50, competition ELISA, 4 μg/mL α4β7 coated, MAdCAM and peptide mixture, 28° C. As to the method:
After washing with wash buffer, 200 μL assay buffer was added to each well and incubated for one hour at 28° C. After another wash with wash buffer, 100 μL of a MAdCAM and peptide mixture in assay buffer was added to each well and incubated for one hour at 28° C., followed by washing with wash buffer.
(In an ELISA, binding on a coated surface is turned into a signal by an enzyme label.)

By half-life is commonly meant the time needed for the level to fall by half in the phase considered. `CSCC[C@@H]1NC(=O)[C@H](CCCNC(=N)N)NC(=O)CNC(=O)[C@H](Cc2ccc(O)cc2)NC(=O)[C@H](Cc2c[nH]c3ccccc23)NC(=O)[C@H](CCC(N)=O)NC(=O)[C@@H]2CSCc3cc(cc(c3)OCCCCCCON=CC(=O)N[C@@H](C)C(=O)N2)CSC[C@@H](C(=O)O)NC1=O` [SEQ ID NO. 21] (ACQWYGRMC-OH; linker N-2-9 via X1) registered a half-life in “in vitro” of 19.7 min.

`CC(C)C[C@@H]1NC(=O)[C@@H]2CSCc3cc(cc(c3)OCCCCCCO/N=C/C(=O)N[C@@H](Cc3ccccc3)C(=O)N2)CSC[C@@H](C(N)=O)NC(=O)[C@H](CO)NC(=O)[C@H](C)NC(=O)[C@H](CCC(=O)O)NC(=O)[C@H](Cc2ccc(O)cc2)NC(=O)CNC1=O` [SEQ ID NO: 22] (FCLGYEASC-NH2; linker N-2-9 via X3) gave a half-life in the data set “in vitro” of 72.3 min. Usually IC50 stands for the point on the concentration scale where inhibition reaches its midpoint. On to `CC[C@H](C)[C@@H]1NC(=O)[C@H](CC(=O)O)NC(=O)[C@H](CCSC)NC(=O)[C@@H]2CCCN2C(=O)[C@@H]2CSCc3cc(cc(c3)OCCCCCCO/N=C/C(=O)N[C@@H](CCC(N)=O)C(=O)N2)CSC[C@@H](C(N)=O)NC(=O)[C@H]([C@@H](C)O)NC(=O)[C@@H]2CCCN2C1=O` [SEQ ID NO: 23] (QCPMDIPTC-NH2; linker N-2-9 via X3; C-terminus assumed), for which the IC50 on rh-integrin α4β7/LPAM-1 [1] is 1.32 µM. On to `CC(C)C[C@@H]1NC(=O)[C@H]([C@@H](C)O)NC(=O)[C@H](CC(=O)O)NC(=O)[C@H](CO)NC(=O)[C@H](CCCNC(=N)N)NC(=O)[C@@H]2CSCc3cc(cc(c3)OCCCCCCO/N=C/C(=O)N[C@@H](C)C(=O)N2)CSC[C@@H](C(N)=O)NC1=O` [SEQ ID NO: 25] (ACRSDTLC-NH2; linker N-2-8 via X3; C-terminus assumed), for which the IC50 on rh-integrin α4β7/LPAM-1 [1] stood at 79.8 µM. Turning to `CC(C)C[C@@H]1NC(=O)[C@H]([C@@H](C)O)NC(=O)[C@H](CC(=O)O)NC(=O)[C@H](CO)NC(=O)[C@H](CCCNC(=N)N)NC(=O)[C@@H]2CSCc3cc(cc(c3)CSC[C@@H](C(=O)O)NC1=O)CON=CC(=O)N[C@@H](C)C(=O)N2` [SEQ ID NO: 70] (ACRSDTLC-OH; linker N-2-8 via X2), the IC50 at rh-integrin α4β7/LPAM-1 [2] and at rh-integrin α4β7/LPAM-1 [1] was 111 µM each time.
